Measurements published in patent US20030032602A1, “Methods and compositions for collagen homeostasis” (priority 2001, published 2003).

System: collagenase from Clostridium histolyticum (EC 3.4.24.3)
Assay: Inhibition of collagenase with fluorophor labeled Gelatin-FL, Collagen I-FL and Collagen IV-FL as substrate
Format: biochemical
Details: substrates collagen I, collagen IV and denatured collagen (gelatin), fluorescence-labeled; incubation 60 min at 37° C.; FIGS. 1A-1C
Description: The following examples have been provided to illustrate various aspects of the inventive subject matter. More particularly, all examples employed commercially available collagenase from Clostridium histolyticum (EC 3.4.24.3; Fluka Chemie AG, Switzerland) and commercially available collagen-I and collagen-IV (Molecular Probes, OR, USA).
Inhibition of collagenase from Clostridium histolyticum was determined using fluorophor labeled Gelatin-FL, Collagen I-FL and Collagen IV-FL as substrate. Negative control was Mg ascorbyl-2-phosphate (MAP), and exemplary boron-containing compounds were AB(F-D) and AB (V-E), which represented two different batches of potassium ascorbato-borates. The assay was performed under standard conditions with incubation and of substrate for 60 min at 37° C. and fluorescence was measured in a standard fluorometer. The results of the inhibition experiments are depicted in FIGS. 1A-1C. With respect to the inhibitors, the first column represents the negative control MAP, while the second and third columns represent exemplary boron-containing compounds AB(F-D) (potassium ascorbato-borate) and AB(V-E) (potassium ascorbato-borate). […] Moreover, additional experiments (data not shown) confirmed the inhibitory character of numerous other boron-containing compounds, and especially boron-containing compounds in which borate is complexed by one or more ligands.

## potassium ascorbato-borate [AB(F-D)]
  inhibition of collagenase: specific inhibitory compounds for collagenase
